# Measured values as given in patent publication US20110130285A1, “COMPOSITION FOR PROMOTING ROOT NODULE FORMATION OF PLANTS AND A METHOD FOR PROMOTING ROOT NODULE FORMATION OF PLANTS” (priority 2009, published 2011).
# Experiments:
# Soybean (Sachiyutaka) [1] = assay: Inosine applied to soybean by foliar spray, soil inoculated with Bradyrhizobium japonicum (Example 3); type: in vivo; settings: 32 days after seeding; for Dry weight of aboveground part / Dry weight of underground part: foliar spray, table prints Inosine (ppm) 2, text 10 ppm, relative value, distilled water group taken as 100
# Experimental: Soybean (Sachiyutaka) was seeded in 0.7 kg of soil (marketed black soil, moisture content: 35%) contained in each of pots. Calcium superphosphate and potassium sulfate were added as fertilizers in the amounts of 28 mg/pot, in terms of P2O5 and K2O, respectively. As root nodule bacterium, “Mame-Zo” (containing a soybean root nodule bacterium, Bradyrhizobium japonicum, Tokachi Federation of Agricultural Cooperative Associations, http://www.nokyoren.or.jp/material.html) was added to the soil at a root nodule bacterium concentration of 10^4 cfu/cm^3 of soil. The treatment groups included the distilled water group and the 10 ppm inosine solution group. One individual showing good growth before development of a primary leaf was selected from each pot, and five individuals were used for each treatment group. Either distilled water or the inosine solution in a volume of 5 ml was applied by foliar spray, 10, 14 and 19 days after the seeding. To the distilled water and the inosine solution, a spreading composition (Approach BI, Kao Corp., “Approach” is a registered trade name of Kao Corp.) was added at a concentration of 0.1 v/v %. The spray amount of inosine given as a one-time application was 10 g/ha in the 10 ppm inosine solution group. Thirty-two days after the seeding, the number of root nodules (FIG. 5), the dry weight of root nodules (FIG. 6), the dry weight of aboveground parts, and the dry weight of underground parts (Table 2) were measured. The dry weight of root nodules, the dry weight of aboveground parts, and the dry weight of underground parts were indicated with relative values based on the values of the distilled water group, which were taken as 100. The application of the 10 ppm inosine solution increased all of the number of root nodules, the dry weight of root nodules, the dry weight of aboveground parts and the dry weight of underground parts.
# plant roots = settings: applied to soil or hydroponic water; leaf vegetables, fruit vegetables, root vegetables, flowers and fruit trees (Japanese Patent No. 2927269); cited from earlier work
# [2] = tested on: soybean (Tanba-kuro, Chusei-hikari-kuro, Sachiyutaka); assay: Inosine sprayed on soil surface: root nodule formation and growth of soybean (Example 1); type: in vivo; settings: 2 ppm and 20 ppm inosine solution, 250 ml sprayed on soil surface 7, 10 and 15 days after seeding, measured 20 days after seeding, all varieties Tanba-kuro, vs distilled water
# Source text: Various varieties of soybeans (black soybeans: Tanba-kuro and Chusei-hikari-kuro, white soybean: Sachiyutaka) were each seeded in 0.6 L of soil (marketed vermiculite, fertilizer was not added) contained in each of No. 4 pots (diameter: 12 cm). For each variety, 7 individuals showing good growth before development of primary leaf were selected per pot. Seven individuals were used for each of the following treatment groups.
# 2. 2 ppm Inosine solution group
# 3. 20 ppm Inosine solution group
# 4. 100 ppm Inosine solution group
# Each solution in a volume of 250 ml was splayed on the soil surface in the pot, 7, 10 and 15 days after the seeding. The inosine concentrations in the soil given as a one-time application were 0.83 ppm for the 2 ppm solution group, 8.3 ppm for the 20 ppm solution group, and 41.7 ppm for the 100 ppm solution group, which were equivalent to 442 g/ha, 4,425 g/ha, and 22.1 kg/ha, respectively. The inosine solutions were prepared by diluting a 2% inosine solution (Ikuou, Shoko Agri Co., Ltd., containing 0.52% KOH as pH modifier in order to promote dissolution of inosine) with distilled water.
# Twenty days after the seeding, the number of root nodules (FIG. 1) and the dry weight of aboveground parts (FIG. 2) were measured.
# Soybean (Sachiyutaka) [3] = assay: Inosine applied by irrigation into soybean-growing black soil (Example 2); type: in vivo; settings: 34 days after seeding; for Dry weight of aboveground part / Dry weight of underground part: 2 ppm inosine, irrigation, relative value, distilled water group taken as 100
# Experimental: Soybean (Sachiyutaka) was seeded in 1 kg of soil (marketed black soil, moisture content: 35%) contained in each of the pots. Calcium superphosphate and potassium sulfate were added as fertilizers in the amounts of 40 mg/pot, in terms of P2O5 and K2O, respectively. The treatment groups included the distilled water group and the 2 ppm inosine solution group. One individual showing good growth before development of a primary leaf was selected from each pot, and five individuals were used for each treatment group. Either the distilled water or the inosine solution in a volume of 250 ml was applied to the soil in the pot by irrigation, 10, 14 and 19 days after the seeding. The inosine concentration in the soil given as a one-time application was 0.5 ppm, which was equivalent to 325 g/ha, in the 2 ppm solution group. Thirty-four days after the seeding, the number of root nodules (FIG. 3), the dry weight of root nodules (FIG. 4), the dry weight of aboveground parts, and the dry weight of underground parts (Table 1) were measured. The dry weight of root nodules, the dry weight of aboveground parts, and the dry weight of underground parts were indicated with relative values based on the values of the distilled water group, which were taken as 100. The application of the 2 ppm inosine solution increased all of the number of root nodules, the dry weight of root nodules, the dry weight of aboveground parts and the dry weight of underground parts.
# Soybean (Sachiyutaka) [4] = assay: Inosine applied by irrigation to soybean-growing vermiculite, low and high soil nutrient (Example 4); type: in vivo; settings: 2 ppm and 20 ppm inosine solutions, irrigation 10, 17 and 25 days after seeding; 33 days after seeding; same soil fertilizer condition (low or high soil nutrient); vs distilled water groups
# Experimental: Soybean (Sachiyutaka) was transplanted to 1.4 L of soil (vermiculite, moisture content: 50%) contained in each of pots (diameter: 15 cm). The treatment groups included the distilled water groups (Groups 1 and 4) and the inosine application groups (Groups 2, 3, 5 and 6), in which 2 ppm and 20 ppm inosine solutions were applied (Ikuou [Shoko Agri Co., Ltd.] was diluted with distilled water and applied), as shown in Table 3. The distilled water groups and the inosine application groups both include a group in which calcium superphosphate and potassium sulfate were added as fertilizers in amounts of 40 mg/pot in terms of P2O5 and K2O, respectively, and a group in which an organic fertilizer (“Hanasaku Hiryo (1.5-9-4.5)”, Tosho Co., Ltd.) was added in an amount of 2 g/pot (N:P2O5:K2O=30:180:90 mg/pot). The root nodule bacterium (“Mame-Zo”, Tokachi Federation of Agricultural Cooperative Associations) was added at a concentration of 4×10^4 cfu/cm^3 of soil. One individual showing good growth before development of a primary leaf was selected from each pot, and five individuals were used for measurement of each treatment group. Either distilled water or each of the inosine solutions in a volume of 250 ml was applied by irrigation, 10, 17 and 25 days after the seeding. The inosine concentrations in the soil given as a one-time application were 0.36 ppm for the 2 ppm solution groups, and 3.6 ppm for the 20 ppm solution groups, which were equivalent to 282 g/ha and 2,825 g/ha, respectively. Under the low nutrient soil condition (Groups 1 to 3), etiolation of the leaves was observed and considered to be due to deficiency of trace components. Accordingly, a solution of the composition shown in Table 4 was applied in a volume of 100 ml/pot by irrigation, 20 days and 27 days after the transplantation of the soybean. Even in this case, the nutrient concentration was lower than that of the high soil nutrient groups (Groups 4 to 6). [table] Thirty-three days after the seeding, the number of root nodules (FIG. 7), the dry weight of root nodules (FIG. 8), the dry weight of aboveground parts (FIG. 9), and the dry weight of underground parts (FIG. 10) were measured. Under the same soil fertilizer condition, the applications of the 2 ppm and 20 ppm inosine solutions both increased all of the number of root nodules, the dry weight of root nodules, the dry weight of aboveground parts and the dry weight of underground parts, as compared with the distilled water groups (0 ppm groups).
# [5] = 10 ppm inosine solution, 5 ml foliar spray 10, 14 and 19 days after seeding, vs distilled water group
# [6] = 2 ppm inosine solution, irrigation 10, 14 and 19 days after seeding, vs distilled water group
smiles,measurement,setting,value
"OC[C@H]1O[C@@H](n2cnc3c(O)ncnc32)[C@H](O)[C@@H]1O [Inosine, inosine]",dry weight of root nodules,Soybean (Sachiyutaka) [1]; [5],increased
same,number of root nodules,Soybean (Sachiyutaka) [1]; [5],increased
same,Dry weight of aboveground part,Soybean (Sachiyutaka) [1],122.0
same,Dry weight of underground part,Soybean (Sachiyutaka) [1],111.9
same,Dry weight of aboveground part,Soybean (Sachiyutaka) [1]; listed as inosine,increased
same,Dry weight of underground part,Soybean (Sachiyutaka) [1]; listed as inosine,increased
same,growth of plant roots,plant roots,promote the growth of plant roots
same,dry weight of aboveground parts,[2],clearly increased
same,number of root nodules,[2],clearly increased
same,dry weight of root nodules,Soybean (Sachiyutaka) [3]; [6],increased
same,number of root nodules,Soybean (Sachiyutaka) [3]; [6],increased
same,Dry weight of aboveground part,Soybean (Sachiyutaka) [3],105.1
same,Dry weight of underground part,Soybean (Sachiyutaka) [3],107.2
same,Dry weight of aboveground part,Soybean (Sachiyutaka) [3]; listed as inosine,increased
same,Dry weight of underground part,Soybean (Sachiyutaka) [3]; listed as inosine,increased
same,dry weight of aboveground parts,Soybean (Sachiyutaka) [4],increased
same,dry weight of root nodules,Soybean (Sachiyutaka) [4],increased
same,dry weight of underground parts,Soybean (Sachiyutaka) [4],increased
same,number of root nodules,Soybean (Sachiyutaka) [4],increased
